According to paper PMC9403976, “Elucidating the path to Plasmodium prolyl-tRNA synthetase inhibitors that overcome halofuginone resistance” (Nature Communications, 2022):
Values joined by “and” are separate entries in the source; they are usually repeats but may differ in a detail not shown here. Equal entries are not always repeated. Where two headings read alike, the source gives them in different places.

How the values were obtained:
PfcProRS = biological target: T1, PfcProRS (Plasmodium falciparum, UniProt Q8I5R7); assay type: binding; conditions: replicates 1-3
T1 construct: made in house; host or cells: E. coli SoluBL-21
T1 sequence (Q8I5R7 249-746): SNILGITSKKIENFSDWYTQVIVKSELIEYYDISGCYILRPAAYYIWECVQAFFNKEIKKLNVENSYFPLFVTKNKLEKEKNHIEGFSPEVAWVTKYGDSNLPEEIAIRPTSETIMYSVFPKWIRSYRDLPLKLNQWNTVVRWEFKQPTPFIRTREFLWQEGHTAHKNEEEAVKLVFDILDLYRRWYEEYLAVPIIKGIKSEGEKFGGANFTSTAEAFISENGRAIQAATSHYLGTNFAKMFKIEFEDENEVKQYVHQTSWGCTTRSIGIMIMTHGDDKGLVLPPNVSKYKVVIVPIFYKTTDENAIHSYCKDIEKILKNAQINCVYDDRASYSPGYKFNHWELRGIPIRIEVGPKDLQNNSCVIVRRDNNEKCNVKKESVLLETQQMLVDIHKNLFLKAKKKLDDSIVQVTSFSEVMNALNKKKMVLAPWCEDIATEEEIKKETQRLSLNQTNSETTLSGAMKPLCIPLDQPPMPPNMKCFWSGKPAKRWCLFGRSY

P. falciparum Dd2-2D4 = experiment: P. falciparum asexual blood stage (ABS) growth assay, SYBR Green, 72 h, wild-type parasites; assay type: cell-based, Plasmodium falciparum; conditions: Plasmodium falciparum, DD2; SI Fig 16b; values on -log scale; read-out: ABS - Dd2-2D4 (converted)
HsProRS = HsProRS (Homo sapiens, UniProt P07814); experiment: TR-FRET ligand displacement assay with tracer MAT379 (CoraFluor-1-Halo and anti-His6 antibody formats); assay type: binding; set-up: made in house; host or cells: E. coli SoluBL-21; conditions: for HsProRS % signal at 10 μM: no added proline/ATP (-)
HsProRS, sequence (P07814 996-1512): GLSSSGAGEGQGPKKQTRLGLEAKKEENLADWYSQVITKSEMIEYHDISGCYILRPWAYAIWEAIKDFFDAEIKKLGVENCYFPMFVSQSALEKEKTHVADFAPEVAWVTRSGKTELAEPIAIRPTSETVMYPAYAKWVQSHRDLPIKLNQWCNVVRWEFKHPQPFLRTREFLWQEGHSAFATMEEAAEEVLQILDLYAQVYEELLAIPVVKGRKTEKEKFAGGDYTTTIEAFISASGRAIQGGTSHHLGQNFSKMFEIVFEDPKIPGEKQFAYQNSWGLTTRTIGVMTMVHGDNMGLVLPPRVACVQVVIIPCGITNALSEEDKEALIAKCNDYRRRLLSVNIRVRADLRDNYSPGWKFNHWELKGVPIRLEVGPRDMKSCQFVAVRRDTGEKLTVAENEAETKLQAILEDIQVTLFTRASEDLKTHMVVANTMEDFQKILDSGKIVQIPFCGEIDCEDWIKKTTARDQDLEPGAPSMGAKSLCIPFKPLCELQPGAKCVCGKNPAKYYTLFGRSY

[1] = read-out: HsProRS IC50 + 100 μM proline, + 100 μM proline

Row | SMILES | Normalized response, dose-response replicates (SI Fig 14) (PfcProRS; Log[inhibitor] (M) -5.000) | Normalized response, dose-response replicates (SI Fig 14) (PfcProRS; Log[inhibitor] (M) -5.301) | Normalized response, dose-response replicates (SI Fig 14) (PfcProRS; Log[inhibitor] (M) -5.601) | Normalized response, dose-response replicates (SI Fig 14) (PfcProRS; Log[inhibitor] (M) -5.904) | Normalized response, dose-response replicates (SI Fig 14) (PfcProRS; Log[inhibitor] (M) -6.208) | Normalized response, dose-response replicates (SI Fig 14) (PfcProRS; Log[inhibitor] (M) -6.509) | Normalized response, dose-response replicates (SI Fig 14) (PfcProRS; Log[inhibitor] (M) -6.796) | Normalized response, dose-response replicates (SI Fig 14) (PfcProRS; Log[inhibitor] (M) -7.108) | Normalized response, dose-response replicates (SI Fig 14) (PfcProRS; Log[inhibitor] (M) -7.409) | Normalized response, dose-response replicates (SI Fig 14) (PfcProRS; Log[inhibitor] (M) -7.710) | Normalized response, dose-response replicates (SI Fig 14) (PfcProRS; Log[inhibitor] (M) -8.000) | Normalized response, dose-response replicates (SI Fig 14) (PfcProRS; Log[inhibitor] (M) -8.301) | Normalized response, dose-response replicates (SI Fig 14) (PfcProRS; Log[inhibitor] (M) -8.602) | Normalized response, dose-response replicates (SI Fig 14) (PfcProRS; Log[inhibitor] (M) -9.000) | Normalized response, dose-response replicates (SI Fig 14) (PfcProRS; Log[inhibitor] (M) -9.301) | EC50 (P. falciparum Dd2-2D4) [µM] | IC50 (HsProRS) [µM] | HsProRS % signal at 10 μM, + 100 μM proline (HsProRS; + 100 μM proline) [%] | HsProRS % signal at 10 μM (HsProRS) [%] | IC50 (HsProRS; [1]) [µM]
1 | O=C(NC1CCCCC1)c1nccnc1NC(=O)C1Cc2ccccc2C1 [compound 49] | 8.45E-01 and 8.81E-01 and 7.61E-01 | 9.54E-01 and 9.61E-01 and 9.77E-01 | 1.16E+00 and 9.36E-01 and 1.07E+00 | 8.95E-01 and 1.06E+00 and 1.02E+00 | 1.16E+00 and 9.70E-01 and 1.06E+00 | 1.04E+00 and 1.06E+00 and 1.11E+00 | 1.05E+00 and 9.78E-01 and 1.11E+00 | 1.04E+00 and 1.10E+00 and 1.05E+00 | 1.08E+00 and 9.76E-01 and 1.10E+00 | 9.25E-01 and 1.04E+00 and 1.10E+00 | 1.07E+00 and 1.04E+00 and 1.10E+00 | 9.50E-01 and 1.14E+00 and 9.21E-01 | 9.83E-01 and 1.05E+00 and 9.81E-01 | 1.05E+00 and 1.09E+00 and 1.08E+00 | 1.08E+00 and 1.02E+00 and 9.82E-01 | 6.81 | > 10 | 103 | 90.3 | > 10
2 | O=C(NC1Cc2ccccc2C1)c1nccnc1NS(=O)(=O)C1CCCCC1 [compound 50] | 8.68E-01 and 9.74E-01 and 9.94E-01 | 9.83E-01 and 9.53E-01 and 9.64E-01 | 9.71E-01 and 9.90E-01 and 1.02E+00 | 1.05E+00 and 1.15E+00 and 1.14E+00 | 1.03E+00 and 9.74E-01 and 1.18E+00 | 1.04E+00 and 9.48E-01 and 1.06E+00 | 9.91E-01 and 1.03E+00 and 9.32E-01 | 9.63E-01 and 9.98E-01 and 1.15E+00 | 9.71E-01 and 8.81E-01 and 1.12E+00 | 9.98E-01 and 1.04E+00 and 1.13E+00 | 1.13E+00 and 9.44E-01 and 9.76E-01 | 8.99E-01 and 9.55E-01 and 8.96E-01 | 9.78E-01 and 9.85E-01 and 1.02E+00 | 9.55E-01 (2×) and 1.01E+00 | 9.48E-01 and 9.83E-01 and 9.54E-01 | 13 | > 10 | 84.5 | 87.7 | > 10
3 | CNc1nccnc1C(=O)NC1Cc2ccccc2C1 [compound 46] | 8.16E-01 and 6.16E-01 and 6.52E-01 | 8.98E-01 and 7.41E-01 and 8.21E-01 | 9.35E-01 and 8.99E-01 and 9.60E-01 | 1.14E+00 and 9.86E-01 and 9.79E-01 | 1.04E+00 and 1.02E+00 and 8.92E-01 | 1.02E+00 (2×) and 9.27E-01 | 1.13E+00 and 1.15E+00 and 1.04E+00 | 9.45E-01 and 1.04E+00 and 8.83E-01 | 1.08E+00 and 9.92E-01 and 1.03E+00 | 9.83E-01 and 1.09E+00 and 9.75E-01 | 9.64E-01 and 1.04E+00 and 9.43E-01 | 1.03E+00 (2×) and 1.01E+00 | 1.06E+00 and 9.77E-01 and 1.03E+00 | 9.75E-01 and 9.25E-01 and 9.98E-01 | 9.09E-01 and 1.02E+00 and 8.23E-01 | 8.11 | > 10 | 91.7 | 97.1 | > 10
